Test results published in article PMC8637766, “A mixed chirality α-helix in a stapled bicyclic and a linear antimicrobial peptide revealed by X-ray crystallography” (RSC Chemical Biology, 2021).
≈ marks a conversion by molar mass, not a printed value. Peptide text beside a SMILES is read from it.

Columns and labels:
[1] = tested on: P. aeruginosa PAO1; format: cell-based, Pseudomonas aeruginosa
Description: (§1) Bicyclic and linear peptides cytotoxicity was assayed against P. aeruginosa PAO1, P. aeruginosa ZEM-1A, P. aeruginosa ZEM9A, K. pneumoniae Oxa-48, E. coli W3110, A. baumannii BAL225, S. aureus Newman, S. aureus COL (clinical isolate of MRSA) , B. Subtilis BR151.
(§2) To determine the Minimal Inhibitory Concentration (MIC), Broth Microdilution method was used . 2 A colony of bacteria from glycerol stock was grown in LB medium overnight at 37 °C and 180 rpm shaking. The compounds were prepared as stock solutions of 8 mg/mL in sterilized milliQ deionized water, added to the first well of 96 -well sterile, polypropylene round bottom microtiter plates (TPP, untreated) and diluted serially by ½. The concentration of the bacteria was quantified by measuring absorbance at 600 nm and diluted to an OD 600 of 0.022 in MH medium. The sample solutions (150 µL) were mixed with 4 µL diluted bacterial suspension with a final inoculation of about 5×10^5 CFU.
For each test, two columns of the plate were kept for sterility control (MH medium only), growth control (MH medium with bacterial inoculum, no compound). The positive control, Polymyxin B (starting with a concentration of 64 µg/mL) in MH medium with bacterial inoculums, was introduced in the two first lines of the plate. The plates were incubated at 37 °C for ~18 hours under static conditions. 15 μL of 3-(4,5-dimethylthiazol-2-yl)-2,5-diphenyltetrazolium bromide (MTT)3 (1 mg/mL in sterilized milliQ deionized water) were added to each well and the plates were incubated for 20-30 minutes at room temperature. The minimal inhibitory concentration (MIC) was defined as the lowest concentration of the dendrimer that inhibits the visible growth of the tested bacteria (yellow) with the unaided eye.

[2] = tested on: B. subtilis BR151; format: cell-based, Bacillus subtilis; settings: BR151, 20 h
Description: as §1, §2
For each test, two columns of the plate were kept for sterility control (MH medium only), growth control (MH medium with bacterial inoculum, no compound). The positive control, Polymyxin B (starting with a concentration of 64 µg/mL) in MH medium with bacterial inoculums, was introduced in the two first lines of the plate. […]
conditions. 15 μL of 3-(4,5-dimethylthiazol-2-yl)-2,5-diphenyltetrazolium bromide (MTT)3 (1 mg/mL in sterilized milliQ deionized water) were added to each well and the plates were incubated for 20-30 minutes at room temperature. The minimal inhibitory concentration (MIC) was defined as the lowest concentration of the dendrimer that inhibits the visible growth of the tested bacteria (yellow) with the unaided eye.

[3] = Lipid vesicle leakage assay, 5(6)-carboxyfluorescein release; settings: for EYPC vesicle leakage / EYPG vesicle leakage: 10 μg mL^−1 compound, leakage at 250 s, 10 mM TRIS, 107 mM NaCl, pH 7.4, 25 °C, carboxyfluorescein fluorescence, Triton X-100 = full release
Description: 4 Lipid Vesicle Leakage assays
5(6)-carboxyfluorescein (CF) was purchased from Sigma. Egg Yolk Phosphatidylcholine (EYPC),
Egg Yolk Phosphatidylglycerol (EYPG) and a Mini-Extruder were purchased from Avanti Polar
Lipids. Egg PC or Egg PG thin lipid layers were prepared by evaporating a solution of 100 mg EYPC
or EYPG in 4 mL MeOH/CHCl3 (1:1) on a rotary evaporator at room temperature and then dried in
vacuo overnight. The resulting film was then hydrated with 4 mL CF buffer (50 mM CF, 10 mM
TRIS, 107 mM NaCl, pH 7.4) for 30 min, subjected to freeze-thaw cycles (7×) and extrusion (15×)
through a polycarbonate membrane (pore size 100 nm). Extra vesicular components were removed
by gel filtration (Sephadex G-50) with 10 mM TRIS, 107 mM NaCl, pH 7.4 buffer. Final conditions:
~ 2.5 mM PC or PG; inside: 50 mM CF, 10 mM TRIS, 10 mM NaCl, pH 7.4 buffer; outside: 10 mM
TRIS, 107 mM NaCl, pH 7.4. PC or PG stock solutions (37.5 µL) were diluted to 3000 µL with a
buffer (10 mM TRIS, 107 mM NaCl, pH 7.4) in a thermostated fluorescence cuvette (25 °C) and
gently stirred (final lipid concentration ~31 µM). CF efflux was monitored at λem 517 nm (λex 492
nm) as a function of time after addition of the desired volume of peptide (1 or 20 mg/mL stock in mQ
water) at t = 45 s. The following final concentrations of peptide were monitored: 5, 10, 15, 20, 25 and
200 µg/mL. Finally, 30 µL of 1.2% Triton X -100 was added to the cuvette (0.012% final
concentration) at t = 285 s to reach the maximum intensity. Fluorescence intensities were then
Figure S1: Vesicle leakage experiments using 5(6)-carboxyfluorescein induced by peptides. EYPG and EYPC vesicles
were suspended in buffer (10 mM TRIS, 107 mM NaCl, pH 7.4) and the indicated concentration of the compound was
added after 45 sec. After 285 seconds 30 μL Triton X-100 1.2% was added for full release of fluorescein. […]

SMILES	MIC PAO1 [1] [µg/mL]	MIC BR 151 [2] [µg/mL]	other results
Cc1c2cc3cc1CSC[C@H](NC(=O)[C@H](CCCCN)NC(=O)[C@H](CC(C)C)NC(=O)[C@H](CC(C)C)NC(=O)[C@H](CCCCN)NC(=O)[C@H](CCCCN)NC3=O)C(=O)N[C@@H](CC(C)C)C(=O)N[C@@H](CCCCN)C(=O)N[C@H](C(=O)N[C@@H](CC(C)C)C(N)=O)CSC2 [bp3] (HELM PEPTIDE1{K.K.L.L.K.C.L.K.C.L.[am]}|CHEM1{[Cc1c(C[*:2])cc(C(=O)[*:1])cc1C[*:3]]}$PEPTIDE1,CHEM1,1:R1-1:R1|PEPTIDE1,CHEM1,6:R3-1:R2|PEPTIDE1,CHEM1,9:R3-1:R3$$$V2.0)	>64	4 (≈ 3.01 µM)	–
Cc1c2cc3cc1CSC[C@H](NC(=O)[C@H](CCCCN)NC(=O)[C@H](CCCCN)NC(=O)[C@H](CC(C)C)NC(=O)[C@H](CC(C)C)NC(=O)[C@H](CCCCN)NC3=O)C(=O)N[C@@H](CC(C)C)C(=O)N[C@@H](CCCCN)C(=O)N[C@H](C(=O)N[C@@H](CC(C)C)C(N)=O)CSC2 [bp59] (HELM PEPTIDE1{K.L.L.K.K.C.L.K.C.L.[am]}|CHEM1{[Cc1c(C[*:2])cc(C(=O)[*:1])cc1C[*:3]]}$PEPTIDE1,CHEM1,1:R1-1:R1|PEPTIDE1,CHEM1,6:R3-1:R2|PEPTIDE1,CHEM1,9:R3-1:R3$$$V2.0)	–	4 (≈ 3.01 µM)	–
Cc1c2cc3cc1CSC[C@H](NC(=O)[C@H](CC(C)C)NC(=O)[C@H](CCCCN)NC(=O)[C@H](CC(C)C)NC(=O)[C@H](CC(C)C)NC(=O)[C@H](CCCCN)NC3=O)C(=O)N[C@@H](CCCCN)C(=O)N[C@@H](CCCCN)C(=O)N[C@H](C(=O)N[C@@H](CC(C)C)C(N)=O)CSC2 [bp60] (HELM PEPTIDE1{K.L.L.K.L.C.K.K.C.L.[am]}|CHEM1{[Cc1c(C[*:2])cc(C(=O)[*:1])cc1C[*:3]]}$PEPTIDE1,CHEM1,1:R1-1:R1|PEPTIDE1,CHEM1,6:R3-1:R2|PEPTIDE1,CHEM1,9:R3-1:R3$$$V2.0)	–	> 64	–
Cc1c2cc3cc1CSC[C@H](NC(=O)[C@H](CC(C)C)NC(=O)[C@H](CCCCN)NC(=O)[C@H](CCCCN)NC3=O)C(=O)N[C@@H](CCCCN)C(=O)N[C@@H](CC(C)C)C(=O)N[C@H](C(=O)N[C@@H](CCCCN)C(=O)N[C@@H](CC(C)C)C(N)=O)CSC2 [bp61] (HELM PEPTIDE1{K.K.L.C.K.L.C.K.L.[am]}|CHEM1{[Cc1c(C[*:2])cc(C(=O)[*:1])cc1C[*:3]]}$PEPTIDE1,CHEM1,1:R1-1:R1|PEPTIDE1,CHEM1,4:R3-1:R2|PEPTIDE1,CHEM1,7:R3-1:R3$$$V2.0)	–	> 64	–
Cc1c2cc3cc1CSC[C@H](NC(=O)[C@H](CC(C)C)NC(=O)[C@H](CC(C)C)NC(=O)[C@H](CC(C)C)NC(=O)[C@H](CCCCN)NC(=O)[C@H](CCCCN)NC3=O)C(=O)N[C@@H](CCCCN)C(=O)N[C@@H](CC(C)C)C(=O)N[C@H](C(=O)N[C@@H](CCCCN)C(N)=O)CSC2 [bp62] (HELM PEPTIDE1{K.K.L.L.L.C.K.L.C.K.[am]}|CHEM1{[Cc1c(C[*:2])cc(C(=O)[*:1])cc1C[*:3]]}$PEPTIDE1,CHEM1,1:R1-1:R1|PEPTIDE1,CHEM1,6:R3-1:R2|PEPTIDE1,CHEM1,9:R3-1:R3$$$V2.0)	–	32 (≈ 24 µM)	–
Cc1c2cc3cc1CSC[C@H](NC(=O)[C@H](CC(C)C)NC(=O)[C@H](CCCCN)NC(=O)[C@H](CCCCN)NC3=O)C(=O)N[C@@H](CCCCN)C(=O)N[C@@H](CC(C)C)C(=O)N[C@@H](CC(C)C)C(=O)N[C@@H](CCCCN)C(=O)N[C@H](C(=O)N[C@@H](CC(C)C)C(N)=O)CSC2 [bp63] (HELM PEPTIDE1{K.K.L.C.K.L.L.K.C.L.[am]}|CHEM1{[Cc1c(C[*:2])cc(C(=O)[*:1])cc1C[*:3]]}$PEPTIDE1,CHEM1,1:R1-1:R1|PEPTIDE1,CHEM1,4:R3-1:R2|PEPTIDE1,CHEM1,9:R3-1:R3$$$V2.0)	–	4 (≈ 3.01 µM)	–
Cc1c2cc3cc1CSC[C@H](NC(=O)[C@H](CCCCN)NC(=O)[C@H](CC(C)C)NC(=O)[C@H](CC(C)C)NC(=O)[C@H](CCCCN)NC(=O)[C@H](CCCCN)NC3=O)C(=O)N[C@@H](CCCCN)C(=O)N[C@@H](CC(C)C)C(=O)N[C@H](C(=O)N[C@@H](CC(C)C)C(N)=O)CSC2 [bp64] (HELM PEPTIDE1{K.K.L.L.K.C.K.L.C.L.[am]}|CHEM1{[Cc1c(C[*:2])cc(C(=O)[*:1])cc1C[*:3]]}$PEPTIDE1,CHEM1,1:R1-1:R1|PEPTIDE1,CHEM1,6:R3-1:R2|PEPTIDE1,CHEM1,9:R3-1:R3$$$V2.0)	–	16 (≈ 12 µM)	–
Cc1c2cc3cc1CSC[C@H](NC(=O)[C@H](CC(C)C)NC(=O)[C@H](CCCCN)NC(=O)[C@H](CCCCN)NC3=O)C(=O)N[C@@H](CCCCN)C(=O)N[C@@H](CC(C)C)C(=O)N[C@@H](CC(C)C)C(=O)N[C@@H](CCCCN)C(=O)N[C@H](C(N)=O)CSC2 [bp66] (HELM PEPTIDE1{K.K.L.C.K.L.L.K.C.[am]}|CHEM1{[Cc1c(C[*:2])cc(C(=O)[*:1])cc1C[*:3]]}$PEPTIDE1,CHEM1,1:R1-1:R1|PEPTIDE1,CHEM1,4:R3-1:R2|PEPTIDE1,CHEM1,9:R3-1:R3$$$V2.0)	–	> 64	–
Cc1c2cc3cc1CSC[C@H](C(=O)N[C@@H](CC(C)C)C(=O)N[C@H](CC(C)C)C(N)=O)NC(=O)[C@H](CCCCN)NC(=O)[C@@H](CC(C)C)NC(=O)[C@H](CSC2)NC(=O)[C@@H](CCCCN)NC(=O)[C@H](CC(C)C)NC(=O)[C@@H](CC(C)C)NC(=O)[C@H](CCCCN)NC(=O)[C@@H](CCCCN)NC3=O [bp67] (HELM PEPTIDE1{[dK].K.[dL].L.[dK].C.[dL].K.[dC].L.[dL].[am]}|CHEM1{[Cc1c(C[*:2])cc(C(=O)[*:1])cc1C[*:3]]}$PEPTIDE1,CHEM1,1:R1-1:R1|PEPTIDE1,CHEM1,6:R3-1:R2|PEPTIDE1,CHEM1,9:R3-1:R3$$$V2.0)	32 (≈ 22.2 µM)	–	EYPC vesicle leakage [3]: 6%; EYPG vesicle leakage [3]: 48%; Leakage activity on EYPC vesicles, in words ([3]; zwitterionic EYPC vesicles mimicking eukaryotic membranes): very low leakage activity
Cc1c2cc3cc1CSC[C@@H](NC(=O)[C@H](CCCCN)NC(=O)[C@H](CC(C)C)NC(=O)[C@H](CC(C)C)NC(=O)[C@H](CCCCN)NC(=O)[C@H](CCCCN)NC3=O)C(=O)N[C@@H](CC(C)C)C(=O)N[C@@H](CCCCN)C(=O)N[C@@H](C(=O)N[C@@H](CC(C)C)C(=O)N[C@@H](CC(C)C)C(N)=O)CSC2 [bp68] (HELM PEPTIDE1{K.K.L.L.K.[dC].L.K.[dC].L.L.[am]}|CHEM1{[Cc1c(C[*:2])cc(C(=O)[*:1])cc1C[*:3]]}$PEPTIDE1,CHEM1,1:R1-1:R1|PEPTIDE1,CHEM1,6:R3-1:R2|PEPTIDE1,CHEM1,9:R3-1:R3$$$V2.0)	16 (≈ 11.1 µM)	–	EYPC vesicle leakage [3]: 18%; EYPG vesicle leakage [3]: 44%
